# According to US20110008258A1, “METHODS RELATING TO BREATHING DISORDERS” (SAMSARA MEDICIN AB, priority 2007, published 2011):
# How the values were obtained:
# EP3R^+/+ mice = test: Flow plethysmography after icv PGE2, EP3R+/+ mice; assay type: in vivo
# Description: (§1) A Plexiglas chamber (35 ml) was connected to a highly sensitive direct airflow sensor (0-200 ml/min; TRN3100, Kent Scientific Corporation, Litchfield, Conn., USA). The flow signal was amplified by a four-channel amplifier (P/N 770 S/N 5; SENSElab, Somedic Sales, Hörby, Sweden), converted to digital signal, and recorded at 100 Hz by an online computer using DasyLab software (Datalog GmbH & Co. KG, Mönchengladbach, Germany). Respiratory frequency (fR, breaths/min), tidal volume (VT, μl/breath), and minute ventilation (VE, μl/min) were calculated. Chamber temperature was maintained at 30.1±0.1° C. in accordance with the documented thermoneutral range for neonatal mice by immersing the chamber in a thermostat-controlled water bath (49). As described previously, the chamber was calibrated by repeatedly injecting standardized volumes of air (5-200 μl) with preset precision syringes (Hamilton Bonaduz AG, Switzerland) (6). 95% of gas exchange occurred within 35 s of administration, which was verified by CO2 content analyses (Metek CD-3A and S-3A, PA, USA).
# (§2) Respiration was examined using flow plethysmography in 9 d-old C57BL/6 mice (n=38) with variable expression of EP3R. After the administration of sevoflurane anesthesia for approximately 60 s, PGE2 (4 nmol in 2-4 μl aCSF) or vehicle was slowly injected into the lateral ventricle using a thin pulled glass pipette attached to polyeethylene tubing. The mouse was then placed immediately into the plethysmograph chamber. After a 10 min recovery period in normoxia, the mouse was exposed to hyperoxic and anoxic challenge as described above. Animal skin temperature was recorded at baseline and at each subsequent minute using a thermistor temperature probe.
# (§3) Periods of calm respiration without movement artefact were selected for analysis. Mean fR, VT, and VE values during normoxia and hyperoxia as well as the anoxic response (i.e., hyperpnea, primary apnea, gasping, secondary apnea, and autoresuscitation) were analyzed as described previously (6, the disclosure of which is expressly incorporated herein by reference). Survival was recorded for all animals. Apnea was defined as cessation of breathing for three respiratory cycles. Regularity of breathing was quantified using the coefficient of variation (C.V.) (i.e., SD divided by mean of breath-by-breath interval during 60 periods).
# EP3R^−/− mice = test: Flow plethysmography after icv PGE2, EP3R−/− mice; assay type: in vivo
# Description: as §1, §2, §3
# [1] = test system: brainstem spinal-cord preparations from EP3R^+/+ pups; test: En bloc brainstem-spinal cord preparation, respiratory activity, EP3R+/+; parameters: species or system mice; conditions: PGE2 20 μg/l, 2-3 d old EP3R+/+ pups, n=5, reversible
# Description: (§4) Brainstem-spinal cord preparations were rapidly isolated from 2 d-old C57BL/6 mice with EP3R^+/+ and EP3R^−/− genotypes as described previously (n=11) (50, 51, both of which are expressly incorporated herein by reference). Respiratory-related activity corresponding to the inspiratory rhythm was monitored at the C4 ventral root through a glass suction electrode, recorded (5 kHz), and analyzed offline. Control recordings were performed for at least 20 min before perfusion with aCSF containing PGE2 followed by an aCSF washout period.
# (§5) The brainstem was rostrally decerebrated between the cranial nerve VI roots and the lower border of the trapezoid body so that the pons was removed. The preparation was continuously perfused in a 1.5 ml chamber with artificial cerebrospinal fluid (aCSF): 130 mM NaCl, 3.3 mM KCl, 0.8 mM KH2PO4, 0.8 mM CaCl2, 1.0 mM MgCl2, 26 mM NaHCO3, and 30 mM D-glucose at 28° C. (flow rate, 3-4 ml/min). The solution was continuously equilibrated with 95% O2 and 5% CO2 to pH 7.4 (50, 51).
# [2] = test system: brainstem spinal-cord preparations from EP3R^−/− mice; test: En bloc brainstem-spinal cord preparation, respiratory activity, EP3R−/−; conditions: PGE2 20 μg/l, n=6
# Description: as §4, §5
# [3] = Description: PGE2 and metabolites thereof may persist and may be measured even after more than 72 hours. Half time for PGE2 degradation various considerably pending on the cellular environment. Half-life of PGE2 can vary from a few minutes to several hours. When evaluating PGE2 produced in the body and secreted in urine or other body fluids it is important to also measure its metabolites.
# [4] = test system: IL-1β-induced respiratory depression; conditions: cited from earlier work
# [5] = 9 d-old EP3R+/+ mice, PGE2 icv, hyperoxia (100% O2)
# [6] = 9 d-old EP3R+/+ mice, PGE2 icv, normoxia
# [7] = 9 d-old EP3R−/− mice, PGE2 icv, hyperoxia (100% O2)
# [8] = 9 d-old EP3R−/− mice, PGE2 icv, normoxia
smiles,measurement,setting,value
"CCCCC[C@H](O)/C=C/[C@H]1[C@H](O)CC(=O)[C@@H]1C/C=C\CCCC(=O)O [PGE2, Prostaglandin E2]","fR, normoxia","EP3R^+/+ mice; 9 d-old EP3R+/+ mice, PGE2 4 nmol icv, normoxia",247 ± 13 breaths/min
same,Hyperpnea fR,"EP3R^+/+ mice; 9 d-old EP3R+/+ mice, PGE2 icv, anoxia (100% N2)",267 ± 11 breaths/min
same,"VE, hyperoxia",EP3R^+/+ mice; [5],745 ± 102 µL/min/g
same,"VT, hyperoxia",EP3R^+/+ mice; [5],4.4 ± 1.1 μl/br/g
same,"fR, hyperoxia",EP3R^+/+ mice; [5],190 ± 16 breaths/min
same,"VE, normoxia",EP3R^+/+ mice; [6],901 ± 154 µL/min/g
same,"VT, normoxia",EP3R^+/+ mice; [6],3.7 ± 0.4 μl/br/g
same,gasping response and anoxic survival,"EP3R^+/+ mice; EP3R+/+ mice, PGE2 icv, compared to vehicle",did not alter the gasping response or anoxic survival
same,apnea frequency and breathing pattern,"EP3R^+/+ mice; EP3R+/+ mice, PGE2 icv, normoxia and hyperoxia, vs vehicle",induced a significantly greater apnea frequency and irregular breathing pattern
same,"fR, normoxia","EP3R^−/− mice; 9 d-old EP3R−/− mice, PGE2 4 nmol icv, normoxia",256 ± 10 breaths/min
same,Hyperpnea fR,"EP3R^−/− mice; 9 d-old EP3R−/− mice, PGE2 icv, anoxia (100% N2)",290 ± 9 breaths/min
same,"VE, hyperoxia",EP3R^−/− mice; [7],1509 ± 299 µL/min/g
same,"VT, hyperoxia",EP3R^−/− mice; [7],6.7 ± 1.3 μl/br/g
same,"fR, hyperoxia",EP3R^−/− mice; [7],229 ± 9 breaths/min
same,"VE, normoxia",EP3R^−/− mice; [8],1350 ± 129 µL/min/g
same,"VT, normoxia",EP3R^−/− mice; [8],5.2 ± 0.5 μl/br/g
same,gasping response and anoxic survival,"EP3R^−/− mice; EP3R−/− mice, PGE2 icv, compared to vehicle",did not alter the gasping response or anoxic survival
same,induction of apneas,"EP3R^−/− mice; EP3R−/− mice, PGE2 icv, normoxia and hyperoxia, vs vehicle",not observed
same,"respiratory rhythm generation, relative to control frequency (fR)",[1],64±5 % of control frequency
same,effect on respiratory activity,[2],did not affect respiratory activity
same,half-life of PGE2,[3],12 to 18 h
COc1ccc2c(c1)c(CC(=O)O)c(C)n2C(=O)c1ccc(Cl)cc1 [indomethacin],effect on respiratory depression induced by IL-1β,[4],attenuates the respiratory depression
same,effect on adverse effects of IL-1β on hypoxic gasping and anoxic survival,[4]; neonatal rats,attenuates the adverse effects
